# Earlier results, collected in US10351563B2, “Biaryl kinase inhibitors” (BRISTOL-MYERS SQUIBB COMPANY, priority 2014, dated 2019).
# Legend:
# AAK1 = AAK1 (Homo sapiens (Human), UniProt Q2M2I8)
# HCV = details: Huh-7.5 cells
# Chain of AAK1 (Q2M2I8 whole entry, species assumed): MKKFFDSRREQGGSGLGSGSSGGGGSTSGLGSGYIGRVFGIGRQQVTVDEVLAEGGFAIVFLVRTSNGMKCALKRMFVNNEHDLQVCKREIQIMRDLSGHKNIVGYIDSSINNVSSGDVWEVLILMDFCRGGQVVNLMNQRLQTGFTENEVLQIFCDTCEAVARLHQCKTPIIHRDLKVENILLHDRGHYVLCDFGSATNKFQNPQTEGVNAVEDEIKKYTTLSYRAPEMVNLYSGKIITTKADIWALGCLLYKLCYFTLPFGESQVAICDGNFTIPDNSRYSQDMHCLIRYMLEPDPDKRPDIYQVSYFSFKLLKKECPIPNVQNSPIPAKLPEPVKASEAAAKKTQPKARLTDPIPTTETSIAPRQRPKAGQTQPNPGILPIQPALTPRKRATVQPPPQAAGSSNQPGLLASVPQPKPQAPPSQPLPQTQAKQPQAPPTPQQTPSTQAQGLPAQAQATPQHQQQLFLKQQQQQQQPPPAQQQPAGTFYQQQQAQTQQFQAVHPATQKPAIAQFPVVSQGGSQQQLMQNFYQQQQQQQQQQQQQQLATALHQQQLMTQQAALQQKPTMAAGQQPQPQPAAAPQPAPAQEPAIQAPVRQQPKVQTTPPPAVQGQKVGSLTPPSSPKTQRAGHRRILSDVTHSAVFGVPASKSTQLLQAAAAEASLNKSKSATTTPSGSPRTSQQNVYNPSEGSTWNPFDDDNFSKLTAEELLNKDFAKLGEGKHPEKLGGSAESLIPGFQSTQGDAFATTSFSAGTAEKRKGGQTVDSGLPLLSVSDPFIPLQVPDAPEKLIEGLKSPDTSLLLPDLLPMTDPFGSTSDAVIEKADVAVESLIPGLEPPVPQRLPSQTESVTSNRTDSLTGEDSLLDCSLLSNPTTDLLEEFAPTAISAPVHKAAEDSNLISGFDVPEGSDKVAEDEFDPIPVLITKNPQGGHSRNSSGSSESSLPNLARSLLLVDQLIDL
Structure (SMILES),Neuregulin-1 induced neurite outgrowth (PC12 cells),AAK1 kinase activity inhibition (AAK1),HCV entry (HCV),HCV virion assembly (HCV)
"COC(=O)[C@@]1(O)C[C@H]2O[C@]1(C)n1c3ccccc3c3c4c(c5c6ccccc6n2c5c31)C(=O)NC4 [Example K252a, K252a]",potentiation of Neuregulin-1 induced neurite outgrowth,inhibits AAK1 kinase activity,–,–
CCN(CC)CCNC(=O)c1c(C)[nH]c(/C=C2\C(=O)Nc3ccc(F)cc32)c1C [sunitinib],–,potent AAK1 inhibitor,inhibit HCV entry,reduced HCV virion assembly
